Broadly, the IC50 is the point on the concentration scale where inhibition reaches its midpoint.

The results in this text go back to US20240299387A1, “HETEROCYCLIC EGFR INHIBITORS FOR USE IN THE TREATMENT OF CANCER” (Blueprint Medicines Corporation, priority 2021, published 2024).

One assay deals with T1, EGFR (L858R T790M C797S) (Homo sapiens, UniProt P00533, C797S/L858R/T790M).
T1 construct: purchased SignalChem E10-122VG
The assay is described as follows: Biochemical EGFR inhibition assay (Caliper mobility shift), EGFR LRTMCS mutant. The settings on record: LRTMCS (PH) IC50 (nM) @ 1 mM ATP (Num). The procedure: Reactions proceeded until between 10% to 20% total peptides were phosphorylated at room temperature (25° C.) and were terminated with 35 mM 2,2′,2″,2′″-(ethane-1,2-diyldinitrilo)tetraacetic acid (EDTA). Product was detected using the Caliper mobility shift detection method where the phosphorylated peptide (product) and substrate were electrophoretically separated and measured. Percent activity was plotted against log concentration of compound and points to generate an apparent IC50.

Assay [1] concerns the target T2, EGFR L858R T790M in NCI-H1975 cell line (Homo sapiens, UniProt P00533, L858R/T790M).
T2 construct: host or cells: NCI-H1975
The assay is described as follows: NCI-H1975 pEGFR AlphaLISA assay. It is filed as cell-based. The settings on record: NCI-H1975 cells (EGFR L858R T790M), p-EGFR (Tyr1068), 4-5 hours incubation; read-out: Ext pEGFR H1975 GMean IC50 (nM) Protocol: @Pharmaron AlphaLISA (Num). The method, then: The NCI-H1975 cells were seeded at 12.5K/well in 22 μL into 384 well opti plate (PerkinElmer, 6007299) and adhering overnight at 37C/5% CO2. On the next day, the test compounds and DMSO control were added into H1975 cell plate followed by incubation at 37C/5% CO2 for 4-5 hours. […] Then 5 μL of a donor bead mix was added to each well followed by overnight incubation at room temperature in dark. On the next day, the plate was read at a compatible plate reader to obtain pEGFR signal. Percent of pEGFR inhibition was plotted against log concentration of compounds to generate IC50 values.
A general note: Alpha assays give light when donor and acceptor beads are brought close together.

Where a name gives a salt, the structure may show the parent alone. A value given as a limit tells only on which side of the number the result lay.

T2 sequence (P00533 25-1210 T790M/L858R): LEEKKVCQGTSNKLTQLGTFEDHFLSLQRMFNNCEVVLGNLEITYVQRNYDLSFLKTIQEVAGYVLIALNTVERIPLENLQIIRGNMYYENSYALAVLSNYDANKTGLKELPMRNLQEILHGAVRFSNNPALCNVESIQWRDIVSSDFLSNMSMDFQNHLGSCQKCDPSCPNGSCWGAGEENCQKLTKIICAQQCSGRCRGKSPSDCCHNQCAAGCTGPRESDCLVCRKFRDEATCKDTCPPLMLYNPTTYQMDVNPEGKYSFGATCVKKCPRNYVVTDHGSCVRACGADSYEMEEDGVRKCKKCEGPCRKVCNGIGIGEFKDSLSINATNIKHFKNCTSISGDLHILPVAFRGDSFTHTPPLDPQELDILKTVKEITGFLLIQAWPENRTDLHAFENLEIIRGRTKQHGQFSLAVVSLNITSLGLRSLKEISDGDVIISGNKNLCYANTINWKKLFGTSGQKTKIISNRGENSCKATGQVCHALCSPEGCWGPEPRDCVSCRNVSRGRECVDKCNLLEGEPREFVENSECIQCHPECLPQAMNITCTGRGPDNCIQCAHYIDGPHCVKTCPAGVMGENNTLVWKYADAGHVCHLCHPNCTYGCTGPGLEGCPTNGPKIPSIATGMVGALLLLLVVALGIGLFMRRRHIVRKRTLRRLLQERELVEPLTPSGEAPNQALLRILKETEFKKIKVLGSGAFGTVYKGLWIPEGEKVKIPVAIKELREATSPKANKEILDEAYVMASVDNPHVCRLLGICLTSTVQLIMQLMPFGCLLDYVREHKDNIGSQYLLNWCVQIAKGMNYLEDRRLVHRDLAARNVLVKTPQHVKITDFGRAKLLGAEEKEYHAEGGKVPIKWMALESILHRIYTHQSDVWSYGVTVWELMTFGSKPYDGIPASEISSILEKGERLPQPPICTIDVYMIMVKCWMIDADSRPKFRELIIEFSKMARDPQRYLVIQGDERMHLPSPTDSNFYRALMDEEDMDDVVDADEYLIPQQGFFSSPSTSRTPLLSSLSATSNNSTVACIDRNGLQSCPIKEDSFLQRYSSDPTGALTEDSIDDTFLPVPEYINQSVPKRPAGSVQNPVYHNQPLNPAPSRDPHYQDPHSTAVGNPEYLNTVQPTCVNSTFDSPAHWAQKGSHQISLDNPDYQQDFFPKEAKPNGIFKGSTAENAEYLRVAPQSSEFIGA
T1 sequence (P00533 25-1210 T790M/C797S/L858R): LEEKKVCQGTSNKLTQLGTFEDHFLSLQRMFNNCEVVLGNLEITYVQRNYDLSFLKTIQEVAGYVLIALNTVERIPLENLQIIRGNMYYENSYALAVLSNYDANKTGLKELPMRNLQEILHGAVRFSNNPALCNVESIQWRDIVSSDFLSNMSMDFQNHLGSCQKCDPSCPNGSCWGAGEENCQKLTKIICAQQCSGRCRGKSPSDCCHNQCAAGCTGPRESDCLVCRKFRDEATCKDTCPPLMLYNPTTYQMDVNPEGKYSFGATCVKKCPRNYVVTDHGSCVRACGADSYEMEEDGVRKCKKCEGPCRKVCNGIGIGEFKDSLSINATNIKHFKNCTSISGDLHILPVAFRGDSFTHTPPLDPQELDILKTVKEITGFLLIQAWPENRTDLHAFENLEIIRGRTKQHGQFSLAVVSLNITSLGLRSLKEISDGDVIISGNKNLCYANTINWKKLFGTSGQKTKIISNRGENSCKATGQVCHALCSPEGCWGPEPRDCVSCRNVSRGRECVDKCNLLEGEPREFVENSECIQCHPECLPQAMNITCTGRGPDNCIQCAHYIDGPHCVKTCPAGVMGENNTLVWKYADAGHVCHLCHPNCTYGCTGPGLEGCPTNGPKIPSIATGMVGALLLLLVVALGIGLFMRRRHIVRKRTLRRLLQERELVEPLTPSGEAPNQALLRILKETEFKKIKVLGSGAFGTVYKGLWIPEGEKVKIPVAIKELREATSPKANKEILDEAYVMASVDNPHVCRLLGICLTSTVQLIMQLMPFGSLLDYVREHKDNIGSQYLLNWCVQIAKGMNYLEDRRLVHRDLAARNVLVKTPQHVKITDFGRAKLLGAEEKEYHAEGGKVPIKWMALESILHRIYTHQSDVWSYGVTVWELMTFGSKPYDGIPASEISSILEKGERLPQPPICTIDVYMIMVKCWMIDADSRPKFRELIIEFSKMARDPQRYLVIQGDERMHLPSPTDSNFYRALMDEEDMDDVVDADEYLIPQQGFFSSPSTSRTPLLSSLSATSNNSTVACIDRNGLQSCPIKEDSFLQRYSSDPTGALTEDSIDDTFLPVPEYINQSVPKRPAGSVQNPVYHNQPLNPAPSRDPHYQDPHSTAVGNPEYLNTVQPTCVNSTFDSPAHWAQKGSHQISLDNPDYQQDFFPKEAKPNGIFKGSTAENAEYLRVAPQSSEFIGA

On to `CC(C)c1cnc(Nc2cnn(C)c2)c2cnc(Nc3ccnc(N4CC[C@@H](O)[C@@](C)(F)C4)n3)cc12` [Example 6, (3S,4R)-3-fluoro-1-(4-((5-isopropyl-8-((1-methyl-1H-pyrazol-4-yl)amino)-2,7-naphthyridin-3-yl)amino)pyrimidin-2-yl)-3-methylpiperidin-4-ol], for which the results for the IC50 (on EGFR (L858R T790M C797S); in assay [1]) were 20 to 30 nM and over 50 nM, respectively.

Consider `CNC(=O)c1ncc(C(C)C)c2cc(Nc3ccnc(N4CC[C@@H](O)[C@@](C)(F)C4)n3)ncc12` [Example 64, 6-((2-((3S,4R)-3-fluoro-4-hydroxy-3-methylpiperidin-1-yl)pyrimidin-4-yl)amino)-4-isopropyl-N-methyl-2,7-naphthyridine-1-carboxamide], for which the IC50 at EGFR (L858R T790M C797S) is 15 to 20 nM; in assay [1], over 50 nM.

For the compound `CC(C)c1cnc(C(=O)N[C@H]2CNC[C@H]2F)c2cnc(Nc3ccnc(N4CC[C@@H](O)[C@@](C)(F)C4)n3)cc12` (racemic) [Example 85, 6-((2-((3S,4R)-3-fluoro-4-hydroxy-3-methylpiperidin-1-yl)pyrimidin-4-yl)amino)-N-((3S,4R)-4-fluoropyrrolidin-3-yl)-4-isopropyl-2,7-naphthyridine-1-carboxamide trifluoroacetate and 6-((2-((3S,4R)-3-fluoro-4-hydroxy-3-methylpiperidin-1-yl)pyrimidin-4-yl)amino)-N-((3R,4S)-4-fluoropyrrolidin-3-yl)-4-isopropyl-2,7-naphthyridine-1-carboxamide trifluoroacetate], the results for the IC50 (at EGFR (L858R T790M C797S); in assay [1]) were under 15 nM and 10 to 20 nM, respectively.

In the case of `CO[C@H]1C[C@@H](NC(=O)c2ncc(C(C)C)c3cc(Nc4ccnc(N5CC[C@@H](O)[C@@](C)(F)C5)n4)ncc23)C1` [Example 73, 6-((2-((3S,4R)-3-fluoro-4-hydroxy-3-methylpiperidin-1-yl)pyrimidin-4-yl)amino)-4-isopropyl-N-((1s,3s)-3-methoxycyclobutyl)-2,7-naphthyridine-1-carboxamide], the IC50 on EGFR (L858R T790M C797S) was under 15 nM; in assay [1], 20 to 30 nM.

For the compound `CNc1nnc(C(C)C)c2cc(Nc3ccnc(N4CC[C@@H](O)[C@@H](F)C4)n3)ncc12` [Example 95], the IC50 is over 100 nM at EGFR (L858R T790M C797S) and over 50 nM in assay [1].

With `CC(C)NC(=O)c1ncc(C(C)C)c2cc(Nc3ccnc(N4CC[C@@H](O)[C@@](C)(F)C4)n3)ncc12` [Example 69, 6-((2-((3S,4R)-3-fluoro-4-hydroxy-3-methylpiperidin-1-yl)pyrimidin-4-yl)amino)-N,4-diisopropyl-2,7-naphthyridine-1-carboxamide], the IC50 on EGFR (L858R T790M C797S) was 20 to 30 nM; in assay [1], over 50 nM.

Turning to `CC(C)c1cnc(C(=O)N[C@H]2C[C@@H](C#N)C2)c2cnc(Nc3ccnc(N4CC[C@@H](O)[C@@](C)(F)C4)n3)cc12` [Example 81, N-((1r,3r)-3-cyanocyclobutyl)-6-((2-((3S,4R)-3-fluoro-4-hydroxy-3-methylpiperidin-1-yl)pyrimidin-4-yl)amino)-4-isopropyl-2,7-naphthyridine-1-carboxamide], the IC50 at EGFR (L858R T790M C797S) is under 15 nM; in assay [1], 20 to 30 nM.

In the case of `CO[C@H]1CCN(c2nccc(Nc3cc4c(C(C)C)ccc(OCCCNC(C)=O)c4cn3)n2)C[C@@H]1O` (single isomer, unassigned) [Example 58, N-(3-((3-((2-((3S,4S)-3-hydroxy-4-methoxypiperidin-1-yl)pyrimidin-4-yl)amino)-5-isopropylisoquinolin-8-yl)oxy)propyl)acetamide or N-(3-((3-((2-((3R,4R)-3-hydroxy-4-methoxypiperidin-1-yl)pyrimidin-4-yl)amino)-5-isopropylisoquinolin-8-yl)oxy)propyl)acetamide], the IC50 on EGFR (L858R T790M C797S) was under 15 nM; in assay [1], 20 to 30 nM.

`CC(C)c1cnc(C(=O)NCCF)c2cnc(Nc3ccnc(N4CC[C@@H](O)[C@@](C)(F)C4)n3)cc12` [Example 62, 6-((2-((3S,4R)-3-fluoro-4-hydroxy-3-methylpiperidin-1-yl)pyrimidin-4-yl)amino)-N-(2-fluoroethyl)-4-isopropyl-2,7-naphthyridine-1-carboxamide]: the IC50 was under 15 nM at EGFR (L858R T790M C797S) and over 50 nM in assay [1].

For `CC(C)c1cnc(C(=O)N[C@H]2C[C@H](O)C2)c2cnc(Nc3ccnc(N4CC[C@@H](O)[C@@](C)(F)C4)n3)cc12` [Example 79, 6-((2-((3S,4R)-3-fluoro-4-hydroxy-3-methylpiperidin-1-yl)pyrimidin-4-yl)amino)-N-((1r,3r)-3-hydroxycyclobutyl)-4-isopropyl-2,7-naphthyridine-1-carboxamide], the IC50 at EGFR (L858R T790M C797S) is under 15 nM; in assay [1], 30 to 50 nM.

For the compound `CC(=O)N1CC(COc2ccc(C(C)C)c3cc(Nc4ccnc(N5CC[C@](C)(O)[C@H](F)C5)n4)ncc23)C1` [Example 26, 1-(3-(((3-((2-((3R,4S)-3-fluoro-4-hydroxy-4-methylpiperidin-1-yl)pyrimidin-4-yl)amino)-5-isopropylisoquinolin-8-yl)oxy)methyl)azetidin-1-yl)ethan-1-one], the values for the IC50 (at EGFR (L858R T790M C797S); in assay [1]) were 15 to 20 nM and over 50 nM, respectively.

Consider `CC(C)c1cnc(C(=O)N[C@H]2CC2(F)F)c2cnc(Nc3ccnc(N4CC[C@@H](O)[C@@](C)(F)C4)n3)cc12` (single isomer, unassigned) [Example 63, N—((S)-2,2-difluorocyclopropyl)-6-((2-((3S,4R)-3-fluoro-4-hydroxy-3-methylpiperidin-1-yl)pyrimidin-4-yl)amino)-4-isopropyl-2,7-naphthyridine-1-carboxamide or N—((R)-2,2-difluorocyclopropyl)-6-((2-((3S,4R)-3-fluoro-4-hydroxy-3-methylpiperidin-1-yl)pyrimidin-4-yl)amino)-4-isopropyl-2,7-naphthyridine-1-carboxamide], for which the IC50 at EGFR (L858R T790M C797S) is 15 to 20 nM; in assay [1], over 50 nM.

As to `CC(C)c1ccc(OCc2cn(C)nn2)c2cnc(Nc3ccnc(N4CC[C@@H](O)[C@@](C)(F)C4)n3)cc12` [Example 10, (3S,4R)-3-fluoro-1-(4-((5-isopropyl-8-((1-methyl-1H-1,2,3-triazol-4-yl)methoxy)isoquinolin-3-yl)amino)pyrimidin-2-yl)-3-methylpiperidin-4-ol], the IC50 at EGFR (L858R T790M C797S) was under 15 nM; in assay [1], 30 to 50 nM.

Regarding `CC(C)c1ccc(OC[C@H]2CCC(=O)N2C)c2cnc(Nc3ccnc(N4CCC(C)(O)CC4)n3)cc12` (single isomer, unassigned) [Example 19, (R)-5-(((3-((2-(4-hydroxy-4-methylpiperidin-1-yl)pyrimidin-4-yl)amino)-5-isopropylisoquinolin-8-yl)oxy)methyl)-1-methylpyrrolidin-2-one or (S)-5-(((3-((2-(4-hydroxy-4-methylpiperidin-1-yl)pyrimidin-4-yl)amino)-5-isopropylisoquinolin-8-yl)oxy)methyl)-1-methylpyrrolidin-2-one], the IC50 at EGFR (L858R T790M C797S) was under 15 nM; in assay [1] it was 10 to 20 nM.

Regarding `CC(C)c1cnc(C(=O)NC2CC(F)(F)C2)c2cnc(Nc3ccnc(N4CC[C@@H](O)[C@@](C)(F)C4)n3)cc12` [Example 75, N-(3,3-difluorocyclobutyl)-6-((2-((3S,4R)-3-fluoro-4-hydroxy-3-methylpiperidin-1-yl)pyrimidin-4-yl)amino)-4-isopropyl-2,7-naphthyridine-1-carboxamide], the IC50 on EGFR (L858R T790M C797S) is under 15 nM; in assay [1], 30 to 50 nM.

Turning to `CNc1ncc(C(C)C)c2cc(Nc3ccnc(N4CC[C@@H](O)[C@@H](F)C4)n3)ncc12` [Example 92, (3S,4R)-3-fluoro-1-(4-((5-isopropyl-8-(methylamino)-2,7-naphthyridin-3-yl)amino)pyrimidin-2-yl)piperidin-4-ol], the IC50 was 30 to 100 nM on EGFR (L858R T790M C797S) and over 50 nM in assay [1].

For the compound `CC(C)c1cnc(C(=O)N[C@H](C)CF)c2cnc(Nc3ccnc(N4CC[C@@H](O)[C@@](C)(F)C4)n3)cc12` [Example 71, 6-((2-((3S,4R)-3-fluoro-4-hydroxy-3-methylpiperidin-1-yl)pyrimidin-4-yl)amino)-N-((R)-1-fluoropropan-2-yl)-4-isopropyl-2,7-naphthyridine-1-carboxamide], the IC50 on EGFR (L858R T790M C797S) is 20 to 30 nM; in assay [1] it was over 50 nM.

As for `CO[C@@H]1CCN(c2nccc(Nc3cc4c(C(C)C)ccc(NCC5CNC[C@@H]5S(C)(=O)=O)c4cn3)n2)C[C@@H]1F` (single isomer, unassigned) [Example 1, N3-(2-((3S,4R)-3-fluoro-4-methoxypiperidin-1-yl)pyrimidin-4-yl)-5-isopropyl-N8-(((4R)-4-(methylsulfonyl)pyrrolidin-3-yl)methyl)isoquinoline-3,8-diamine or N3-(2-((3S,4R)-3-fluoro-4-methoxypiperidin-1-yl)pyrimidin-4-yl)-5-isopropyl-N8-(((4S)-4-(methylsulfonyl)pyrrolidin-3-yl)methyl)isoquinoline-3,8-diamine], the IC50 at EGFR (L858R T790M C797S) is under 15 nM; in assay [1] it was 30 to 50 nM.

`CC(C)c1ccc(OCCN2CCOCC2)c2cnc(Nc3ccnc(N4CC[C@](C)(O)[C@H](F)C4)n3)cc12` [Example 31, (3R,4S)-3-fluoro-1-(4-((5-isopropyl-8-(2-morpholinoethoxy)isoquinolin-3-yl)amino)pyrimidin-2-yl)-4-methylpiperidin-4-ol]: the IC50 at EGFR (L858R T790M C797S) was under 15 nM; in assay [1] it was over 50 nM.
